# Reference: patent US20260297081A1, “COMPOUNDS AND METHODS OF TREATING CANCERS” (Cullgen Inc., priority 2023, published 2026)
# Biological target: CDK4 (Homo sapiens, UniProt P11802+Q16531)
# Experiment: CDK4 percentage degradation in Calu-1 cells (Table 6)
# Assay type: cell-based
# Parameters: Cells that express cyclin D1-3 and CDK4/6 proteins were treated with heterobifunctional compounds; endogenous in cells; host or cells: Calu-1
# Conditions: 16 hours; for inhibition at 0.04 µM: 40 nM; for inhibition at 0.2 µM: 200 nM
# Summary of the method: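 Percentage degradation of Cyclin D1 and CDK4 derived from densitometry of ECL Western blots on lysates of Calu-1 cells. Treatment was 16 h with compound at either 40 nM or 200 nM.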
# Chain of CDK4 (P11802 2-303 limits assumed): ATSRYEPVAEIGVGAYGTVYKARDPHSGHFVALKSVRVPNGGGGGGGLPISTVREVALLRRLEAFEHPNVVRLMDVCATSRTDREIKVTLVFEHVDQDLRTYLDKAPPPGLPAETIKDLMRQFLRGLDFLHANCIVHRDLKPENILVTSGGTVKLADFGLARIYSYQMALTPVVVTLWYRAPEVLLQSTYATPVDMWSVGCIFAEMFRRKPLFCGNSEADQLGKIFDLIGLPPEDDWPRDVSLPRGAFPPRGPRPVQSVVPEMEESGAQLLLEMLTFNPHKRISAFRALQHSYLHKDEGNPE
# Chain of CDK4 (P24385 whole entry partner): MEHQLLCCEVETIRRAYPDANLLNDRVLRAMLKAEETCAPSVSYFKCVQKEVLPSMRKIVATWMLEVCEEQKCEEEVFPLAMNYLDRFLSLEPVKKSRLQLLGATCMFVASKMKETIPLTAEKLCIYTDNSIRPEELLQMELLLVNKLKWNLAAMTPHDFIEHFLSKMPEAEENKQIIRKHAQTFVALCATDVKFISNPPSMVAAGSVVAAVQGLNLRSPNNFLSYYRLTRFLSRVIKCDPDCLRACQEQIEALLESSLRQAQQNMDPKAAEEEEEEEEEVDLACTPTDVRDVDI
# Chain of CDK4 (Q16531 2-1140 limits assumed): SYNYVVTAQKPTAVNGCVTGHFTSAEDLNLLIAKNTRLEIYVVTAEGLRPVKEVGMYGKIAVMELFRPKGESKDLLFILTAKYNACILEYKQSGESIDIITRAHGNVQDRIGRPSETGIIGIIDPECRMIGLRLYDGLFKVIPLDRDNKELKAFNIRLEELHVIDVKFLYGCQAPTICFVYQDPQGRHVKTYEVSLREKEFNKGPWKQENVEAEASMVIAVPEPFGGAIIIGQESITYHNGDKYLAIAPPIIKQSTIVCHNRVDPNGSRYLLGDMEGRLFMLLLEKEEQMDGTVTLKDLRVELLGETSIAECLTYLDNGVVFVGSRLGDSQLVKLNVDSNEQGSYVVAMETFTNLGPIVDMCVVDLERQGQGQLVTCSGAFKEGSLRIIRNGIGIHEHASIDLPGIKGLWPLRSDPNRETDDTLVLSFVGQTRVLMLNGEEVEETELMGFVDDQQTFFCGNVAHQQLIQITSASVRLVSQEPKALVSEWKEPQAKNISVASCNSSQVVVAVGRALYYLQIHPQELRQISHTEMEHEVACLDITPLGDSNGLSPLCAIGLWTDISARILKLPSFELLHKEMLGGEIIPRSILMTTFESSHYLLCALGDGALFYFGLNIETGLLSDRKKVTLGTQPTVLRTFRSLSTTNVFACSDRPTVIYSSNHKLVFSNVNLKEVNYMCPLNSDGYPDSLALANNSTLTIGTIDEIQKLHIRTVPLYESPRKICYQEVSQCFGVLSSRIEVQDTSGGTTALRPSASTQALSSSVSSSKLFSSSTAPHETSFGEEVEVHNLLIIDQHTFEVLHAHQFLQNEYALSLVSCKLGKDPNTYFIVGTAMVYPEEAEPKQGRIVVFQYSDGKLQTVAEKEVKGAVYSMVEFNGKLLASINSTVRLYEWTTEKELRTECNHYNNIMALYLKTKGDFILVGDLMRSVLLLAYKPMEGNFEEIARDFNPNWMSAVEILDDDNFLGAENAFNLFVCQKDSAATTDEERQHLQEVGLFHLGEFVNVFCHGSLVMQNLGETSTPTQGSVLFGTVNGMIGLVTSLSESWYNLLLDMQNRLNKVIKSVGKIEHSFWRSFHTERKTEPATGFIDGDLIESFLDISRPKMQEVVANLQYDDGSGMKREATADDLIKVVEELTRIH
Structure (SMILES),inhibition at 0.04 µM,inhibition at 0.2 µM
"CC(=O)c1c(C)c2cnc(Nc3ccc(N4CCN(CC(=O)NC5CC6(C5)CC(Nc5nc(C)ccc5C(=O)Nc5cccc(C7CC7)n5)C6)CC4)cn3)nc2n(C2CCCC2)c1=O (centres unmarked) [CPD-120, 2-((6-(2-(4-(6-((6-Acetyl-8-cyclopentyl-5-methyl-7-oxo-7,8-dihydropyrido[2,3-d]pyrimidin-2-yl)amino)pyridin-3-yl)piperazin-1-yl)acetamido)spiro[3.3]heptan-2-yl)amino)-N-(6-cyclopropylpyridin-2-yl)-6-methylnicotinamide]",< 30%,30 to 50%
"CNc1ccc(C(=O)Nc2cccc(C)n2)c(NC[C@H]2CC[C@H](NC(=O)CN3CCN(c4ccc(Nc5ncc6c(C)c(C(C)=O)c(=O)n(C7CCCC7)c6n5)nc4)CC3)CC2)n1 [CPD-126, 2-(((trans-4-(2-(4-(6-((6-Acetyl-8-cyclopentyl-5-methyl-7-oxo-7,8-dihydropyrido[2,3-d]pyrimidin-2-yl)amino)pyridin-3-yl)piperazin-1-yl)acetamido)cyclohexyl)methyl)amino)-6-(methylamino)-N-(6-methylpyridin-2-yl)nicotinamide]",< 30%,50 to 80%
"CC(=O)c1c(C)c2cnc(Nc3ccc(N4CCN(CC(=O)NC5CC6(C5)CC(Nc5cc(Cl)ccc5C(=O)Nc5cc(C)on5)C6)CC4)cn3)nc2n(C2CCCC2)c1=O (centres unmarked) [CPD-259, 2-((6-(2-(4-(6-((6-acetyl-8-cyclopentyl-5-methyl-7-oxo-7,8-dihydropyrido[2,3-d]pyrimidin-2-yl)amino)pyridin-3-yl)piperazin-1-yl)acetamido)spiro[3.3]heptan-2-yl)amino)-4-chloro-N-(5-methylisoxazol-3-yl)benzamide]",< 30%,30 to 50%
"CNc1ccc(C(=O)Nc2ccn(C)n2)c(NC2CC3(CC(NC(=O)CN4CCN(c5ccc(Nc6ncc7c(C)c(C(C)=O)c(=O)n(C8CCCC8)c7n6)nc5)CC4)C3)C2)n1 (centres unmarked) [CPD-93, 2-((6-(2-(4-(6-((6-Acetyl-8-cyclopentyl-5-methyl-7-oxo-7,8-dihydropyrido[2,3-d]pyrimidin-2-yl)amino)pyridin-3-yl)piperazin-1-yl)acetamido)spiro[3.3]heptan-2-yl)amino)-N-(1-methyl-1H-pyrazol-3-yl)-6-(methylamino)nicotinamide]",30 to 50%,50 to 80%
"CNc1ccc(C(=O)Nc2ccc(N(C)C)nn2)c(NC2CC3(C2)CC(C(=O)N2CCN(c4ccc(Nc5ncc6c(C)c(C(C)=O)c(=O)n(C7CCCC7)c6n5)nc4)CC2)C3)n1 (centres unmarked) [CPD-140, 2-((6-(4-(6-((6-Acetyl-8-cyclopentyl-5-methyl-7-oxo-7,8-dihydropyrido[2,3-d]pyrimidin-2-yl)amino)pyridin-3-yl)piperazine-1-carbonyl)spiro[3.3]heptan-2-yl)amino)-N-(6-(dimethylamino)pyridazin-3-yl)-6-(methylamino)nicotinamide]",< 30%,50 to 80%
"CNc1ccc(C(=O)Nc2cc(C)n(C(C)C)n2)c(NC2CC3(CC(NC(=O)CN4CCN(c5ccc(Nc6ncc7c(C)c(C(C)=O)c(=O)n(C8CCCC8)c7n6)nc5)CC4)C3)C2)n1 (centres unmarked) [CPD-99, 2-((6-(2-(4-(6-((6-Acetyl-8-cyclopentyl-5-methyl-7-oxo-7,8-dihydropyrido[2,3-d]pyrimidin-2-yl)amino)pyridin-3-yl)piperazin-1-yl)acetamido)spiro[3.3]heptan-2-yl)amino)-N-(1-isopropyl-5-methyl-1H-pyrazol-3-yl)-6-(methylamino)nicotinamide]",30 to 50%,50 to 80%
"CC(=O)c1c(C)c2cnc(Nc3ccc(N4CCN(C(=O)NCCC5CC(Nc6cc(Cl)ccc6C(=O)Nc6ccc(C)c(C7CC7)n6)C5)CC4)cn3)nc2n(C2CCCC2)c1=O (centres unmarked) [CPD-256, 4-(6-((6-Acetyl-8-cyclopentyl-5-methyl-7-oxo-7,8-dihydropyrido[2,3-d]pyrimidin-2-yl)amino)pyridin-3-yl)-N-(2-(3-((5-chloro-2-((6-cyclopropyl-5-methylpyridin-2-yl)carbamoyl)phenyl)amino)cyclobutyl)ethyl)piperazine-1-carboxamide]",< 30%,< 30%
"CNc1ccc(C(=O)Nc2ccc(=O)[nH]n2)c(NCCCCCNC(=O)CN2CCN(c3ccc(Nc4ncc5c(C)c(C(C)=O)c(=O)n(C6CCCC6)c5n4)nc3)CC2)n1 [CPD-77, 2-((5-(2-(4-(6-((6-Acetyl-8-cyclopentyl-5-methyl-7-oxo-7,8-dihydropyrido[2,3-d]pyrimidin-2-yl)amino)pyridin-3-yl)piperazin-1-yl)acetamido)pentyl)amino)-6-(methylamino)-N-(6-oxo-1,6-dihydropyridazin-3-yl)nicotinamide]",< 30%,< 30%
"CNc1ccc(C(=O)Nc2ccc(N(C)C)nn2)c(NC2CC3(C2)CN(C(=O)N2CCN(c4ccc(Nc5ncc6c(C)c(C(C)=O)c(=O)n(C7CCCC7)c6n5)nc4)CC2)C3)n1 [CPD-133, 2-((2-(4-(6-((6-Acetyl-8-cyclopentyl-5-methyl-7-oxo-7,8-dihydropyrido[2,3-d]pyrimidin-2-yl)amino)pyridin-3-yl)piperazine-1-carbonyl)-2-azaspiro[3.3]heptan-6-yl)amino)-N-(6-(dimethylamino)pyridazin-3-yl)-6-(methylamino)nicotinamide]",30 to 50%,50 to 80%
"CC(=O)c1c(C)c2cnc(Nc3ccc(N4CCN(CC(=O)NCCC5CC(Nc6cc(F)ccc6C(=O)Nc6ccc(N(C)C)nn6)C5)CC4)cn3)nc2n(C2CCCC2)c1=O (centres unmarked) [CPD-258, 2-((3-(2-(2-(4-(6-((6-Acetyl-8-cyclopentyl-5-methyl-7-oxo-7,8-dihydropyrido[2,3-d]pyrimidin-2-yl)amino)pyridin-3-yl)piperazin-1-yl)acetamido)ethyl)cyclobutyl)amino)-N-(6-(dimethylamino)pyridazin-3-yl)-4-fluorobenzamide]",30 to 50%,50 to 80%
"CNc1ccc(C(=O)Nc2ccc(N(C)C)nn2)c(NC2CCC3(C2)CN(C(=O)CN2CCN(c4ccc(Nc5ncc6c(C)c(C(C)=O)c(=O)n(C7CCCC7)c6n5)nc4)CC2)C3)n1 (centres unmarked) [CPD-235, 2-((2-(2-(4-(6-((6-acetyl-8-cyclopentyl-5-methyl-7-oxo-7,8-dihydropyrido[2,3-d]pyrimidin-2-yl)amino)pyridin-3-yl)piperazin-1-yl)acetyl)-2-azaspiro[3.4]octan-6-yl)amino)-N-(6-(dimethylamino)pyridazin-3-yl)-6-(methylamino)nicotinamide]",< 30%,50 to 80%
"CNc1ccc(C(=O)Nc2ccc(N(C)C)nn2)c(NCC2CCN(C(=O)CN3CCN(c4ccc(Nc5ncc6c(C)c(C(C)=O)c(=O)n(C7CCCC7)c6n5)nc4)CC3)CC2)n1 [CPD-145, 2-(((1-(2-(4-(6-((6-acetyl-8-cyclopentyl-5-methyl-7-oxo-7,8-dihydropyrido[2,3-d]pyrimidin-2-yl)amino)pyridin-3-yl)piperazin-1-yl)acetyl)piperidin-4-yl)methyl)amino)-N-(6-(dimethylamino)pyridazin-3-yl)-6-(methylamino)nicotinamide]",< 30%,50 to 80%
"[2H]C([2H])([2H])Nc1ccc(C(=O)Nc2cc(C)n(C)n2)c(NC2CCN(C(=O)CN3CCN(c4ccc(Nc5ncc6c(C)c(C(C)=O)c(=O)n(C7CCCC7)c6n5)nc4)CC3)CC2)n1 [CPD-230, 2-((1-(2-(4-(6-((6-acetyl-8-cyclopentyl-5-methyl-7-oxo-7,8-dihydropyrido[2,3-d]pyrimidin-2-yl)amino)pyridin-3-yl)piperazin-1-yl)acetyl)piperidin-4-yl)amino)-N-(1,5-dimethyl-1H-pyrazol-3-yl)-6-((methyl-d3)amino)nicotinamide]",< 30%,30 to 50%
"CNc1ccc(C(=O)Nc2ccc(N(C)C)nn2)c(NC[C@H]2CC[C@H](CCC(=O)N3CCN(c4ccc(Nc5ncc6c(C)c(C(C)=O)c(=O)n(C7CCCC7)c6n5)nc4)CC3)CC2)n1 [CPD-204, 2-(((trans-4-(3-(4-(6-((6-acetyl-8-cyclopentyl-S-methyl-7-oxo-7,8-dihydropyrido[2,3-d]pyrimidin-2-yl)amino)pyridin-3-yl)piperazin-1-yl)-3-oxopropyl)cyclohexyl)methyl)amino)-N-(6-(dimethylamino)pyridazin-3-yl)-6-(methylamino)nicotinamide]",< 30%,50 to 80%
"[2H]C([2H])([2H])Nc1ccc(C(=O)Nc2cc(C)on2)c(NC2CC3(CC(NC(=O)CN4CCN(c5ccc(Nc6ncc7c(C)c(C(C)=O)c(=O)n(C8CCCC8)c7n6)nc5)CC4)C3)C2)n1 (centres unmarked) [CPD-225, 2-((6-(2-(4-(6-((6-acetyl-8-cyclopentyl-5-methyl-7-oxo-7,8-dihydropyrido[2,3-d]pyrimidin-2-yl)amino)pyridin-3-yl)piperazin-1-yl)acetamido)spiro[3.3]heptan-2-yl)amino)-6-((methyl-d3)amino)-N-(5-methylisoxazol-3-yl)nicotinamide]",30 to 50%,50 to 80%
"CNc1ccc(C(=O)Nc2cc(C3CC3)on2)c(NC2CC3(CC(NC(=O)CN4CCN(c5ccc(Nc6ncc7c(C)c(C(C)=O)c(=O)n(C8CCCC8)c7n6)nc5)CC4)C3)C2)n1 (centres unmarked) [CPD-215, 2-((6-(2-(4-(6-((6-acetyl-8-cyclopentyl-5-methyl-7-oxo-7,8-dihydropyrido[2,3-d]pyrimidin-2-yl)amino)pyridin-3-yl)piperazin-1-yl)acetamido)spiro[3.3]heptan-2-yl)amino)-N-(5-cyclopropylisoxazol-3-yl)-6-(methylamino)nicotinamide]",< 30%,< 30%
